From patent US6756359B2, “C12 modified erythromycin macrolides and ketolides having antibacterial activity” (Chiron Corporation, priority 2001, dated 2004)
In brackets after ≈: the same amount, converted by molar mass.

Legend:
Assay in all cases: Antibacterial activity in vitro, MIC by broth microdilution
[1] = system: H. influenzae Hain_49247; type: cell-based, Haemophilus influenzae; conditions: Table 5, Strain ID M: H. influenzae Hain_49247; unit assumed
Protocol: (§1) Representative compounds of the present invention were assayed in vitro for antibacterial activity against the bacterial isolates listed in Table 1 as follows:
(§2) The bacterial isolates listed in Table 1 were cultivated from −70° C. frozen stocks by two consecutive overnight passages (P1, P2) at 35° C. on 5% blood agar (Remel, Lenexa, Kans.). Chocolate agar (Remel) is used for Haemophilus influenzae. H. influenzae and Streptococcus pneumoniae are incubated in 5-10% CO2.
(§3) To determine the amount of solvent to be used to give the desired final concentration, the formula “weight obtained in mg/final concentration in mg/mL” will be used. It will give the amount of solvent in mL needed to be added to give the desired concentration. For example, if 2.5 mg/mL is the desired concentration and the weight of compound is 13.7 mg, then the amount of solvent to be added is 3.94 mL (13.7 mg/2.5 mg/mL=3.94 mLs). Methanol is used as the solvent to dissolve the test compounds. Further dilution of stock is done in sterile, deioinzed water. Drug stocks are kept frozen at −70° C., protected from light.
(§4) MICs are determined by the broth microdilution method in accordance with the NCCLS guidelines. In brief, organism suspensions are adjusted to a 0.5 McFarland standard to yield a final inoculum between 3×10^5 and 7×10^5 CFU/mL. Drug dilutions and inocula are made in sterile, cation adjusted Mueller-Hinton Broth (CAMHB) (Remel) for all but S. pneumoniae [CAMHB with 2-5% lysed horse blood (Remel)] and H. influenzae [Haemophilus Test Medium (Remel)]. An inoculum volume of 100 μl is added to wells containing 100 μl of broth with 2-fold serial dilutions of drug. All inoculated microdilution trays are incubated in ambient air at 35° C. for 18-24 hours, except for S. pneumoniae, and H. influenzae (both at 5-10% CO2).
(§5) Following appropriate incubation, the MIC is determined and the MIC is defined as the lowest concentration of the drug that prevented visible growth.

[2] = system: S. pneumoniae Stpn_Erm 6849; type: cell-based, Streptococcus pneumoniae; conditions: Table 5, Strain ID I: S. pneumoniae Stpn_Erm 6849; unit assumed
Protocol: as §1, §2, §3, §4, §5

[3] = system: S. pneumoniae Stpn_Mef 5654; type: cell-based, Streptococcus pneumoniae; conditions: Table 5, Strain ID K: S. pneumoniae Stpn_Mef 5654; unit assumed
Protocol: as §1, §2, §3, §4, §5

[4] = system: S. pneumoniae Stpn_297-749 Pen R; type: cell-based, Streptococcus pneumoniae; conditions: Table 5, Strain ID G: S. pneumoniae Stpn_297-749
Protocol: as §1, §2, §3, §4, §5

[5] = system: S. pneumoniae Stpn_280-962 Pen S; type: cell-based, Streptococcus pneumoniae; conditions: Table 5, Strain ID H: S. pneumoniae Stpn_280-962
Protocol: as §1, §2, §3, §4, §5

[6] = system: S. pneumoniae Stpn_Erm S 4297; type: cell-based, Streptococcus pneumoniae; conditions: Table 5, Strain ID J: S. pneumoniae Stpn_Erm S 4297
Protocol: as §1, §2, §3, §4, §5

[7] = system: S. pneumoniae Stpn_49619; type: cell-based, Streptococcus pneumoniae; conditions: Table 5, Strain ID F: S. pneumoniae Stpn_49619
Protocol: as §1, §2, §3, §4, §5

[8] = system: S. pneumoniae Stpn_Mef S 3427; type: cell-based, Streptococcus pneumoniae; conditions: Table 5, Strain ID L: S. pneumoniae Stpn_Mef S 3427; unit assumed
Protocol: as §1, §2, §3, §4, §5

[9] = system: S. epidermidis Step_f50654 Pen S; type: cell-based; conditions: Table 5, Strain ID C: S. epidermidis Step_f50654; unit assumed
Protocol: as §1, §2, §3, §4, §5

[10] = system: S. aureus Stau_29213; type: cell-based; conditions: Table 5, Strain ID A: S. aureus Stau_29213; unit assumed
Protocol: as §1, §2, §3, §4, §5

[11] = system: S. pyogenes Stpy_8668; type: cell-based; conditions: Table 5, Strain ID E: S. pyogenes Stpy_8668
Protocol: as §1, §2, §3, §4, §5

[12] = system: S. epidermidis Step_14990; type: cell-based; conditions: Table 5, Strain ID B: S. epidermidis Step_14990; unit assumed
Protocol: as §1, §2, §3, §4, §5

[13] = system: E. faecalis Enfa_29212; type: cell-based; conditions: Table 5, Strain ID D: E. faecalis Enfa_29212; unit assumed
Protocol: as §1, §2, §3, §4, §5

SMILES	MIC [1]	MIC [2]	MIC [3]	MIC [4]	MIC [5]	MIC ([6]; unit assumed)	MIC [7]	MIC [8]	MIC [9]	MIC [10]	MIC [11]	MIC [12]	MIC [13]	MIC [6]	MIC ([4]; unit assumed)
CC[C@H]1OC(=O)[C@H](C)C(=O)[C@H](C)[C@@H](OC2O[C@H](C)C[C@H](N(C)C)[C@H]2O)[C@@](C)(OC)C[C@@H](C)C(=O)[C@H](C)[C@H]2N(CCCCn3cnc(-c4cccnc4)c3C)C(=O)O[C@]12CC (stereo partly drawn) [Example 21, (3aS,4R,7R,9R,10R,11S,13R,15R,15aR)-3a,4-diethyl-11-methoxy-7,9,11,13,15-pentamethyl-1-[4-(5-methyl-4-pyridin-3-yl-1H-imidazol-1-yl)butyl]-2,6,8,14-tetraoxotetradecahydro-2H-oxacyclotetradecino[4,3-d][1,3]oxazol-10-yl 3,4,6-trideoxy-3-(dimethylamino)-D-xylo-hexopyranoside]	12.5 µg/mL (≈ 14.9 µM)	0.2 µg/mL (≈ 0.238 µM)	0.78 µg/mL (≈ 0.928 µM)	≦0.05	≦0.05	0.1 µg/mL (≈ 0.119 µM)	≦0.05	0.1 µg/mL (≈ 0.119 µM)	0.4 µg/mL (≈ 0.476 µM)	0.4 µg/mL (≈ 0.476 µM)	≦0.05	0.4 µg/mL (≈ 0.476 µM)	0.1 µg/mL (≈ 0.119 µM)		
CC[C@H]1OC(=O)[C@@](C)(F)C(=O)[C@H](C)[C@@H](OC2O[C@H](C)C[C@H](N(C)C)[C@H]2O)[C@@](C)(OC)C[C@@H](C)C(=O)[C@H](C)[C@H]2N(CCCCn3cnc4ncccc43)C(=O)O[C@]12CC (stereo partly drawn) [Example 27, (3aS,4R,7S,9R,10R,11S,13R,15R,15aR)-3a,4-diethyl-7-fluoro-1-[4-(1H-imidazo[4,5-b]pyridin-1-yl)butyl]-11-methoxy-7,9,11,13,15-pentamethyl-2,6,8,14-tetra-oxotetradecahydro-2H-oxacyclotetradecino[4,3-d][1,3]oxazol-10-yl 3,4,6-trideoxy-3-(dimethylamino)-D-xylo-hexopyranoside]	1.56 µg/mL (≈ 1.91 µM)	3.13 µg/mL (≈ 3.83 µM)	0.4 µg/mL (≈ 0.489 µM)		≦0.025	0.1 µg/mL (≈ 0.122 µM)	≦0.025	0.1 µg/mL (≈ 0.122 µM)	0.1 µg/mL (≈ 0.122 µM)	0.1 µg/mL (≈ 0.122 µM)	≦0.025	0.1 µg/mL (≈ 0.122 µM)	0.05 µg/mL (≈ 0.0611 µM)		0.025 µg/mL (≈ 0.0306 µM)
CC[C@H]1OC(=O)[C@H](C)C(=O)[C@H](C)[C@@H](OC2O[C@H](C)C[C@H](N(C)C)[C@H]2O)[C@@](C)(OC)C[C@@H](C)C(=O)[C@H](C)[C@H]2N(CCCCn3cnc(-c4ccncc4)c3)C(=O)O[C@]12CC (stereo partly drawn) [Example 28, (3aS,4R,7R,9R,10R,11S,13R,15R,15aR)-3a,4-diethyl-11-methoxy-7,9,11,13,15-pentamethyl-2,6,8,14-tetraoxo-1-[4-(4-pyridin-4-yl-1H-imidazol-1-yl)butyl]tetradecahydro-2H-oxacyclotetradecino[4,3-d][1,3]oxazol-10-yl 3,4,6-trideoxy-3-(dimethylamino)-D-xylo-hexopyranoside]	3.13 µg/mL (≈ 3.79 µM)	> 50 µg/mL	0.78 µg/mL (≈ 0.944 µM)	≦0.05	≦0.05	0.4 µg/mL (≈ 0.484 µM)	≦0.05	0.2 µg/mL (≈ 0.242 µM)	0.4 µg/mL (≈ 0.484 µM)	0.4 µg/mL (≈ 0.484 µM)	≦0.05	0.4 µg/mL (≈ 0.484 µM)	0.1 µg/mL (≈ 0.121 µM)		

Now from value to molecule:

MIC [1]	MIC [2]	MIC [3]	MIC [4]	MIC [5]	MIC ([6]; unit assumed)	MIC [7]	MIC [8]	MIC [9]	MIC [10]	MIC [11]	MIC [12]	MIC [13]	MIC [6]	MIC ([4]; unit assumed)	SMILES
3.13 µg/mL (≈ 3.91 µM)	0.2 µg/mL (≈ 0.25 µM)	0.78 µg/mL (≈ 0.975 µM)	≦0.05	≦0.05	0.1 µg/mL (≈ 0.125 µM)	≦0.05	0.2 µg/mL (≈ 0.25 µM)	0.4 µg/mL (≈ 0.5 µM)	0.4 µg/mL (≈ 0.5 µM)	≦0.05	0.4 µg/mL (≈ 0.5 µM)	0.2 µg/mL (≈ 0.25 µM)			CC[C@H]1OC(=O)[C@H](C)C(=O)[C@H](C)[C@@H](OC2O[C@H](C)C[C@H](N(C)C)[C@H]2O)[C@@](C)(OC)C[C@@H](C)C(=O)[C@H](C)[C@H]2N(CCCCn3cnc4ncccc43)C(=O)O[C@]12CC (stereo partly drawn) [Example 22, (3aS,4R,7R,9R,10R,11S,13R,15R,15aR)-3a,4-diethyl-1-[4-(1H-imidazo[4,5-b]pyridin-1-yl)butyl]-11-methoxy-7,9,11,13,15-pentamethyl-2,6,8,14-tetraoxotetradecahydro-2H-oxacyclotetradecino[4,3-d][1,3]oxazol-10-yl 3,4,6-trideoxy-3-(dimethylamino)-D-xylo-hexopyranoside]
6.25 µg/mL (≈ 8.06 µM)	0.78 µg/mL (≈ 1.01 µM)	0.4 µg/mL (≈ 0.516 µM)	≦0.05	≦0.05	0.2 µg/mL (≈ 0.258 µM)	≦0.05	0.1 µg/mL (≈ 0.129 µM)	0.78 µg/mL (≈ 1.01 µM)	1.56 µg/mL (≈ 2.01 µM)	≦0.05	0.78 µg/mL (≈ 1.01 µM)	0.2 µg/mL (≈ 0.258 µM)			CC[C@H]1OC(=O)[C@H](C)C(=O)[C@H](C)[C@@H](OC2O[C@H](C)C[C@H](N(C)C)[C@H]2O)[C@@](C)(OC)C[C@@H](C)C(=O)[C@H](C)[C@H]2N(CCN(C)Cc3cccnc3)C(=O)O[C@]12CC (stereo partly drawn) [Example 23, (3aS,4R,7R,9R,10R,11S,13R,15R,15aR)-3a,4-diethyl-11-methoxy-7,9,11,13,15-pentamethyl-1-{2-[methyl(pyridin-3-ylmethyl)amino]ethyl}-2,6,8,14-tetraoxotetradecahydro-2H-oxacyclotetradecino[4,3-d][1,3]oxazol-10-yl 3,4,6-trideoxy-3-(dimethylamino)-D-xylo-hexopyranoside]
3.13 µg/mL (≈ 3.78 µM)	0.1 µg/mL (≈ 0.121 µM)	0.4 µg/mL (≈ 0.484 µM)	≦0.05	≦0.05	0.1 µg/mL (≈ 0.121 µM)	≦0.05	0.1 µg/mL (≈ 0.121 µM)	0.2 µg/mL (≈ 0.242 µM)	0.4 µg/mL (≈ 0.484 µM)	≦0.05	0.2 µg/mL (≈ 0.242 µM)	0.1 µg/mL (≈ 0.121 µM)			CC[C@H]1OC(=O)[C@H](C)C(=O)[C@H](C)[C@@H](OC2O[C@H](C)C[C@H](N(C)C)[C@H]2O)[C@@](C)(OC)C[C@@H](C)C(=O)[C@H](C)[C@H]2N(CCCCn3cnc(-c4cncnc4)c3)C(=O)O[C@]12CC (stereo partly drawn) [Example 25, (3aS,4R,7R,9R,10R,11S,13R,15R,15aR)-3a,4-diethyl-11-methoxy-7,9,11,13,15-pentamethyl-2,6,8,14-tetraoxo-1-[4-(4-pyrimidin-5-yl-1H-imidazol-1-yl)butyl]tetradecahydro-2H-oxacyclotetradecino[4,3-d][1,3]oxazol-10-yl 3,4,6-trideoxy-3-(dimethylamino)-D-xylo-hexopyranoside]
3.13 µg/mL (≈ 3.78 µM)	0.2 µg/mL (≈ 0.242 µM)	0.4 µg/mL (≈ 0.484 µM)	≦0.05	≦0.05		≦0.05	0.1 µg/mL (≈ 0.121 µM)	0.2 µg/mL (≈ 0.242 µM)	0.2 µg/mL (≈ 0.242 µM)	≦0.05	0.2 µg/mL (≈ 0.242 µM)	0.2 µg/mL (≈ 0.242 µM)	≦0.05		CC[C@H]1OC(=O)[C@H](C)C(=O)[C@H](C)[C@@H](OC2O[C@H](C)C[C@H](N(C)C)[C@H]2O)[C@@](C)(OC)C[C@@H](C)C(=O)[C@H](C)[C@H]2N(CCCCn3cnc(-c4cnccn4)c3)C(=O)O[C@]12CC (stereo partly drawn) [Example 26, (3aS,4R,7R,9R,10R,11S,13R,15R,15aR)-3a,4-diethyl-11-methoxy-7,9,11,13,15-pentamethyl-2,6,8,14-tetraoxo-1-[4-(4-pyrazin-2-yl-1H-imidazol-1-yl)butyl]tetradecahydro-2H-oxacyclotetradecino [4,3-d][1,3]oxazol-10-yl 3,4,6-trideoxy-3-(dimethylamino)-D-xylo-hexopyranoside]
